The values that follow are results of earlier work, collected in patent publication US8703900B2 (BioAmber Inc., priority 2010, dated 2014).

The structures appear in SMILES notation.

The conditions of the data set: first acid group.

With `O=C(O)CCCCC(=O)O` [AA, adipic acid], the pKa1 is reported as 4.43.
